This passage reports pest or weed control and mortality results from patent US4331670A (priority 1979, dated 1982).

The structures appear in SMILES notation.

The test system of one assay is Pyricularia orzae. The assay can be described thus: whole plant or invertebrate. It counts as in vivo, Pyricularia orzae (rice plant, Chukyo Asahi). As to conditions: in Oryza sativa, 120 h, read-out: Protective value.
A further assay relates to Rhizoctonia solani. The assay can be described thus: whole plant or invertebrate. It counts as in vivo, Rhizoctonia solani (rice plant, Chukyo Asahi). As to conditions: in Oryza sativa, 120 h, read-out: Preventive value.
For the next assay, the system named is Callosobruchus chinensis. Nature of the assay: Test 7: mortality of adults of Callosobruchus chinensis on film in Petri-dish. It counts as in vivo. As to conditions: 400 μg per Petri-dish of 9 cm, 25° C., 24 hours, read-out: Percent mortality. As for the experimental part:
Each active ingredient was dissolved in acetone to prepare each solution having the specific concentration. 1 Ml. of the solution (400 μg. of each active ingredient) was uniformly adhered on the inner bottom surface of Petri-dish having a diameter of 9 cm to form a film. In the dish, 15 of adults of Callosobruchus chinensis were charged and the dish was covered with a cap and kept in a constant temperature chamber at 25° C. for 24 hours. Each percent mortality was calculated as that of Test 6.

In the next assay the test system is Tetranychus telarius (L). The assay can be described thus: Test 6: mortality of larvae and adults of Tetranychus telarius on kidney bean leaf. It counts as in vivo. Particulars: foliar, 72 h, leaf dipped, wettable powder of Composition No. 5, three days after treatment, read-out: Percent mortality. On the procedure: Young seedling of kidney bean treated to cut off leaves except one primordial leaf was transplanted in a cup and about 30 of larvae and adults of Tetranychus telarius (L) were inoculated on the primordial leaf. This was dipped for 10 seconds in each solution obtained by diluting each wettable powder of Composition No. 5 containing each active ingredient with water at the concentration of 800 ppm and was dried in air and was kept in a constant temperature chamber with lighting at 28° C. Three days after the treatment, mortality was measured and each percent mortality was calculated as follows. [formula]

The next assay concerns Botrytis cinerea. The assay can be described thus: Test 9: protective value on cucumber inoculated with Botrytis cinerea. Format: in vivo, Botrytis cinerea (cucumber plant, Suyo). Particulars: 72 h; for pest or weed control at 250 ppm: 10 ml sprayed, lesion length three days after inoculation. As for the experimental part: In each unglazed pot having a diameter of 9 cm, cucumber plant (Suyo) was cultured. At one leaf stage, 10 ml. of each solution of each active ingredient having a concentration of 250 ppm was sprayed by a spray gun. After maintaining the pot in a green-house at 24° to 25° C. for one day, a disc (punched agar disc) obtained by culturing Botrytis cinerea on a potato-glucose-agar medium (PDA medium) was put on the leaf of cucumber to inoculate them. Three days after the inoculation, lengths of lesions were measured and each protective value was calculated as Test 2.
In accordance with the test, except the concentration of the active ingredient was decreased, the comparative tests of Compound No. 7 and Reference compound were carried out.

The subject of another assay is Plutella xylostella. The assay can be described thus: Test 11: mortality of larvae of Plutella xylostella on treated cabbage leaf. It counts as in vivo. As to conditions: foliar, 192 h, leaf dipped, emulsifiable concentrate Composition No. 3, eight days, read-out: Percent mortality. An excerpt:
Each emulsifiable concentrate of each active ingredient as Composition No. 3 was dispersed in water at a concentration of 800 ppm. Each leaf of cabbage was dipped into each emulsion for about 10 seconds and taken up and dried in air.
A wet filter paper was put in each Petri dish (diameter of 9 cm), and each treated leaf was put on the filter paper. Larvae of Plutella xylostella at 2nd to 3rd instar were charged and the dish was covered with a cap and kept in a constant temperature chamber with lighting at 28° C. Eight days after the charge, mortality was measured and each percent mortality was calculated.

The next assay relates to Sphaerotheca fuliginea. Nature of the assay: whole plant or invertebrate. It counts as in vivo, Sphaerotheca fuliginea (cucumber plant, Suyo). Particulars: Podosphaera fuliginea, in Cucumis sativus, 240 h, read-out: Protective value.

What is called mortality is the share of the test organisms that died. Consider `O=[N+]([O-])c1cc(C(F)(F)F)cc([N+](=O)[O-])c1Nc1ncc(C(F)(F)F)cc1Cl` [Compound No. 2], for which the pest or weed control at 100 ppm with Pyricularia orzae and with Rhizoctonia solani was 100% throughout. In addition, the mortality at 400 µg/dish in the assay with Callosobruchus chinensis was found to be 100%.
In the case of `O=[N+]([O-])c1ccc(Nc2c(Cl)c(F)nc(F)c2Cl)c(C(F)(F)F)c1` [Reference compound, N-(2,6-difluoro-3,5-dichloro-4-pyridyl)-N-(4-nitro-2-trifluoromethylphenyl)amine, reference compound], the figures for the mortality at 800 ppm in the assay with Tetranychus telarius (L) and with Plutella xylostella were 40% and 0%, respectively. In addition, the pest or weed control at 62.5 ppm in the assay on Botrytis cinerea (62.5 ppm) stood at 0%. For the same compound, the pest or weed control at 12.5 ppm in the assay on Pyricularia orzae worked out at 0%. Further, the pest or weed control at 25 ppm with Pyricularia orzae came to 0%.
As to `O=[N+]([O-])c1cc(C(F)(F)F)cc([N+](=O)[O-])c1Nc1c(Cl)cncc1Cl` [compound 15, N-(3,5-dichloro-4-pyridyl)-2,6-dinitro-4-trifluoromethylaniline], the pest or weed control at 500 ppm in the assay on Sphaerotheca fuliginea worked out at 100%. The mortality at 800 ppm in the assay on Tetranychus telarius (L) and with Plutella xylostella was 100% in each case. The pest or weed control at 100 ppm with Pyricularia orzae and in the assay on Rhizoctonia solani was 100% each time.
In the case of `O=[N+]([O-])c1cc(C(F)(F)F)c(Cl)c([N+](=O)[O-])c1Nc1ncc(Cl)cc1Br` [compound 18], the pest or weed control at 250 ppm in the assay with Botrytis cinerea stood at 100%. Also, the pest or weed control at 100 ppm with Pyricularia orzae and in the assay with Rhizoctonia solani was 100% in each case.
In the assay with Botrytis cinerea, `O=[N+]([O-])c1cc(C(F)(F)F)c(Cl)c([N+](=O)[O-])c1Nc1ccc(C(F)(F)F)cn1` [compound 19] gave a pest or weed control at 250 ppm of 100%. Further, the pest or weed control at 100 ppm with Pyricularia orzae and with Rhizoctonia solani was 100% in each case.
As to `O=[N+]([O-])c1cc(C(F)(F)F)c(Cl)c([N+](=O)[O-])c1Nc1ncc(C(F)(F)F)cc1Br` [compound 21], the pest or weed control at 500 ppm in the assay on Sphaerotheca fuliginea is 100%. The pest or weed control at 250 ppm with Botrytis cinerea worked out at 100%. The pest or weed control at 100 ppm with Pyricularia orzae came out at 100%.
For `O=[N+]([O-])c1cc(C(F)(F)F)cc([N+](=O)[O-])c1Nc1ncc(C(F)(F)F)cc1Br` [compound 22], the pest or weed control at 500 ppm in the assay with Sphaerotheca fuliginea was determined as 100%. The mortality at 800 ppm in the assay on Tetranychus telarius (L) was determined as 100%. Also, the pest or weed control at 250 ppm in the assay with Botrytis cinerea was 100%. Further, in the assay on Pyricularia orzae, the pest or weed control at 100 ppm was 100%.
On to `O=[N+]([O-])c1cc(C(F)(F)F)cc([N+](=O)[O-])c1Nc1ncc(Cl)cc1C(F)(F)F` [compound 27], for which the mortality at 800 ppm in the assay on Tetranychus telarius (L) was 100%. Moreover, the pest or weed control at 100 ppm in the assay with Pyricularia orzae is 100%.
As for `O=[N+]([O-])c1cc(C(F)(F)F)cc([N+](=O)[O-])c1Nc1ncc(Br)cc1C(F)(F)F` [compound 28], the mortality at 800 ppm with Tetranychus telarius (L) is 100%. Also, in the assay on Pyricularia orzae, the pest or weed control at 100 ppm worked out at 100%.
With `O=[N+]([O-])c1cc(C(F)(F)F)c(Cl)c([N+](=O)[O-])c1Nc1ncc(Cl)cc1C(F)(F)F` [compound 29], the mortality at 800 ppm in the assay on Tetranychus telarius (L) and in the assay with Plutella xylostella was 100% in each case. Besides, the pest or weed control at 250 ppm in the assay on Botrytis cinerea is 100%. Moreover, the pest or weed control at 100 ppm in the assay on Pyricularia orzae and in the assay on Rhizoctonia solani was 100% throughout.
As for `O=[N+]([O-])c1cc(C(F)(F)F)c(Cl)c([N+](=O)[O-])c1Nc1ncc(Br)cc1C(F)(F)F` [compound 30], the pest or weed control at 250 ppm in the assay on Botrytis cinerea was 100%. The pest or weed control at 100 ppm with Pyricularia orzae is 100%; in the assay on Rhizoctonia solani it was 95%.
Turning to `O=[N+]([O-])c1cc(C(F)(F)F)c(Cl)c([N+](=O)[O-])c1Nc1nc(Cl)c(Br)cc1C(F)(F)F` [compound 31], the pest or weed control at 500 ppm with Sphaerotheca fuliginea was 100%. Further, in the assay on Rhizoctonia solani, the pest or weed control at 100 ppm came out at 90%.
As to `O=[N+]([O-])c1cc(C(F)(F)F)cc([N+](=O)[O-])c1Nc1nc(Cl)c(C(F)(F)F)cc1Br` [compound 32], in the assay with Sphaerotheca fuliginea, the pest or weed control at 500 ppm was determined as 100%. The pest or weed control at 100 ppm with Pyricularia orzae and in the assay on Rhizoctonia solani was 100% throughout.
In the assay with Botrytis cinerea, `O=[N+]([O-])c1cc(C(F)(F)F)c(Cl)c([N+](=O)[O-])c1Nc1nc(Cl)c(C(F)(F)F)cc1Cl` [compound 35] displayed a pest or weed control at 250 ppm of 100%. The pest or weed control at 100 ppm in the assay on Pyricularia orzae amounted to 95%; with Rhizoctonia solani, 100%.
On to `O=[N+]([O-])c1cc(C(F)(F)F)c(Cl)c([N+](=O)[O-])c1Nc1ncccc1C(F)(F)F` [compound 36], for which the pest or weed control at 250 ppm in the assay with Botrytis cinerea amounted to 96%. The pest or weed control at 100 ppm in the assay with Pyricularia orzae is 100%; in the assay with Rhizoctonia solani it was 92%.
For `O=[N+]([O-])c1cc(C(F)(F)F)cc([N+](=O)[O-])c1Nc1ncccc1C(F)(F)F` [compound 37], the mortality at 800 ppm in the assay on Tetranychus telarius (L) was 100%. In the assay with Botrytis cinerea, this compound registered a pest or weed control at 250 ppm of 93%. Also, the pest or weed control at 100 ppm with Pyricularia orzae and in the assay on Rhizoctonia solani was 100% throughout.
Regarding `COc1c(C(F)(F)F)cc([N+](=O)[O-])c(Nc2ncc(C(F)(F)F)cc2Cl)c1[N+](=O)[O-]` [compound 39], the mortality at 800 ppm with Tetranychus telarius (L) amounted to 100%. Besides, the pest or weed control at 100 ppm in the assay on Pyricularia orzae and with Rhizoctonia solani was 100% each time.
For the compound `CCOc1c(C(F)(F)F)cc([N+](=O)[O-])c(Nc2ncc(C(F)(F)F)cc2Cl)c1[N+](=O)[O-]` [compound 40, N-(3-chloro-5-trifluoromethyl-2-pyridyl)-2,6-dinitro-3-ethoxy-4-trifluoromethylaniline], the mortality at 800 ppm in the assay on Tetranychus telarius (L) and in the assay with Plutella xylostella was 100% in each case. Also, the pest or weed control at 100 ppm in the assay on Pyricularia orzae and in the assay with Rhizoctonia solani was 100% in each case.
As for `CCCOc1c(C(F)(F)F)cc([N+](=O)[O-])c(Nc2ncc(C(F)(F)F)cc2Cl)c1[N+](=O)[O-]` [compound 41], the mortality at 800 ppm with Tetranychus telarius (L) and in the assay with Plutella xylostella was 100% each time. In addition, the pest or weed control at 100 ppm in the assay with Pyricularia orzae and in the assay on Rhizoctonia solani was 95% throughout.
Take `O=[N+]([O-])c1cc(C(F)(F)F)c(Oc2ccc(O)cc2)c([N+](=O)[O-])c1Nc1ncc(C(F)(F)F)cc1Cl` [compound 49]: in the assay on Tetranychus telarius (L), the mortality at 800 ppm amounted to 100%. Moreover, in the assay on Botrytis cinerea, the pest or weed control at 250 ppm was 100%. For the same compound, the pest or weed control at 100 ppm in the assay with Rhizoctonia solani worked out at 100%.
For `O=[N+]([O-])c1cc([N+](=O)[O-])c(Nc2ccc(Cl)cn2)c(C(F)(F)F)c1` [compound 52], the mortality at 800 ppm in the assay with Plutella xylostella stood at 100%. Further, in the assay with Callosobruchus chinensis, the mortality at 400 µg/dish was determined as 100%.
As to `O=[N+]([O-])c1cc([N+](=O)[O-])c(Nc2ccc(Br)cn2)c(C(F)(F)F)c1` [compound 54], the pest or weed control at 50 ppm in the assay with Pyricularia orzae stood at 100%. Moreover, in the assay with Rhizoctonia solani, the pest or weed control at 100 ppm turned out to be 90%. In addition, the mortality at 400 µg/dish in the assay with Callosobruchus chinensis was found to be 100%.
For `O=[N+]([O-])c1cc([N+](=O)[O-])c(Nc2nc(Cl)ccc2C(F)(F)F)c(C(F)(F)F)c1` [compound 66, N-(2-chloro-5-trifluoromethyl-6-pyridyl)-2,4-dinitro-6-trifluoromethylaniline], the pest or weed control at 100 ppm in the assay with Sphaerotheca fuliginea (100 ppm) turned out to be 100%. In addition, in the assay with Plutella xylostella, the mortality at 800 ppm was 100%.
In the case of `O=[N+]([O-])c1cc([N+](=O)[O-])c(Nc2ccc(C(F)(F)F)c(Cl)n2)c(C(F)(F)F)c1` [compound 70], in the assay on Plutella xylostella, the mortality at 800 ppm is 100%. Further, in the assay on Callosobruchus chinensis, the mortality at 400 µg/dish is 100%.
Regarding `Cc1nc(Nc2c([N+](=O)[O-])cc([N+](=O)[O-])cc2C(F)(F)F)c(Cl)c(C)c1Cl` [compound 77, N-(3,5-dichloro-4,6-dimethyl-2-pyridyl)-2,4-dinitro-6-trifluoromethylaniline], the mortality at 800 ppm in the assay on Plutella xylostella was 100%. In addition, the mortality at 400 µg/dish in the assay with Callosobruchus chinensis came to 100%.
On to `O=[N+]([O-])c1cc([N+](=O)[O-])c(Nc2ncccc2C(F)(F)F)c(C(F)(F)F)c1` [compound 81], for which, in the assay on Plutella xylostella, the mortality at 800 ppm was 100%. In addition, the pest or weed control at 50 ppm with Pyricularia orzae stood at 100%. Also, the mortality at 400 µg/dish in the assay on Callosobruchus chinensis came to 100%.
Regarding `O=[N+]([O-])c1cc(C(F)(F)F)cc(C(F)(F)F)c1Nc1ncc(C(F)(F)F)cc1Cl` [compound 89], the mortality at 800 ppm in the assay with Tetranychus telarius (L) was 100%.
Turning to `O=[N+]([O-])c1cc(C(F)(F)F)cc(C(F)(F)F)c1Nc1ncc(Cl)cc1Cl` [compound 90], the mortality at 800 ppm with Tetranychus telarius (L) came out at 100%.
